Laboratory results taken from paper PMC10630959, “Dissimilar Effect of P-Glycoprotein and Breast Cancer Resistance Protein Inhibition on the Distribution of Erlotinib to the Retina and Brain in Humans and Mice” (Molecular Pharmaceutics, 2023).
“Also recorded” adds a separate entry of the source. Read-outs that look alike come from different tables or passages of the source. Each block holds one compound with its values, some of them ahead of it.

What was measured:
[1] = test system: OCTs, OCTNs and OATPs at the mouse BBB; experiment: [^3H]erlotinib in situ carotid perfusion, brain transport with SLC transporter inhibitors; type: in vivo; conditions: 100 μM fexofenadine, 5 mM TEA, 100 μM estrone-3-sulfate, 0.5 mM ergothioneine, 5 mM L-carnitine
Description: (§1) Transport of [^3H]erlotinib at the luminal BRB and BBB was measured by in situ carotid perfusion.[11],[25] With this method, the vascular composition of the brain and the eye is completely substituted by an artificial fluid, whose constitution can be modified. The perfusion fluid for the in situ carotid perfusion consisted of Krebs carbonate-buffered physiological saline with 128 mM NaCl, 24 mM NaHCO3, 4.2 mM KCl, 2.4 mM NaH2PO4, 1.5 mM CaCl2, 0.9 mM MgSO4, and 9 mM D-glucose, warmed to 37 °C and gassed with 95% O2/5% CO2 to adjust the pH to 7.40. The pH of the perfusion fluid was checked and adjusted with a digital pH meter (±0.05 pH units) immediately before perfusion. Tissue accumulation of [^3H]erlotinib was measured under trans-influx zero to determine the kinetic conditions required to measure transport solely across the membrane, separating the sucrose (vascular) from the nonsucrose (tissue parenchyma) space. […] The first membrane (luminal/vascular) delimiting the sucrose space is the only kinetic interface that affects the distribution parameters of [^3H]erlotinib.
(§2) Mice were anesthetized with ketamine and xylazine (140 and 8 mg/kg, intraperitoneal), and a catheter was inserted into the right carotid artery after ligation of the appropriate vessels. Just before perfusion, the heart was cut. Perfusion started immediately at a constant flow rate of 2.5 mL/min. […] Perfusion was terminated by decapitating the mouse after 60 s. The right eye (without the optic nerve) and the right cerebral hemisphere were removed from the skull and dissected on a freezer pack. The tissues and aliquots of perfusion fluid were weighted, digested (Solvable; PerkinElmer), and mixed with Ultima-gold XR (PerkinElmer). Dual-label counting was carried out in a Tri-Carb 2810TR instrument (PerkinElmer) to measure radioactivity (disintegrations per minute, dpm). […] Therefore, radioactivity in the whole eye was assumed to represent only the posterior segment of the eye, which comprises the retina.
(§3) Calculations were performed as described previously.[11],[25] The initial transport rate, also called brain-eye clearance, expressed as Kin (μL/s/g) was selected as the main outcome parameter. The brain and eye tissue “vascular” volume (Vv; μL/g) was estimated by using the [^14C]sucrose distribution volume. The data for any mouse for which Vv was different from the normal values[25] were excluded from the analysis.

[2] = test system: OCTs, OCTNs and OATPs at the mouse BRB; experiment: [^3H]erlotinib in situ carotid perfusion, retina transport with SLC transporter inhibitors; type: in vivo; conditions: 100 μM fexofenadine, 5 mM TEA, 100 μM estrone-3-sulfate, 0.5 mM ergothioneine, 5 mM L-carnitine
Description: as §1, §2, §3

[3] = test system: P-gp and BCRP at the human BRB and BBB; set-up: method as in PMID 34220523; conditions: cited from earlier work
[4] = test system: P-gp and BCRP at the mouse BBB
[5] = test system: P-gp and BCRP at the mouse BRB
[6] = test system: P-gp and BCRP at the human blood–brain barrier (BBB); experiment: [^11C]erlotinib PET, distribution to human whole brain gray matter, baseline vs P-gp and/or BCRP inhibition
Description: (§4) Medication-free male (n = 20) and female (n = 2) subjects, who were judged to be healthy based on the screening examinations (past medical history, physical examination, blood and urine tests), were enrolled into the study and allocated to the tariquidar (n = 5) or erlotinib group (n = 17).
(§5) The second scan was performed on the same day for the tariquidar group or on a separate day for the erlotinib group. […] The total administered dose of tariquidar was of 5.6 ± 0.6 mg/kg body weight. For the erlotinib group (n = 17), the second PET scan was acquired approximately 3 h after oral intake of 300 mg (n = 7), 650 mg (n = 8), or 1000 mg (n = 2) of erlotinib (Tarceva; Roche Pharma, 50 and 150 mg tablets).[22] […] In addition to the PET scans, magnetic resonance imaging (MRI) of the head (T1-weighted; Magnetom Skyra 3.0-T MRI, Siemens Medical Solutions) was performed on all participants.
(§6) As described previously,[22] serial arterial blood samples were collected during the two PET imaging sessions in both groups. Venous blood samples were collected at baseline and hourly for 8 h and at approximately 21 h after oral erlotinib intake for determination of erlotinib plasma concentrations. A gamma counter, which was cross-calibrated with the PET camera, was used to determine the radioactivity concentrations in blood and plasma aliquots.
(§7) Volume of interest (VOI) analysis was conducted for the retina on MR-to-PET coregistered images using PMOD software (version 3.6; PMOD Technologies Ltd., Zürich, Switzerland). The retina VOI was outlined in a way to avoid spillover of radioactivity from adjacent anatomic structures (e.g., major blood vessels). The volume of the retina VOI was in the range of 0.8–0.9 cm^3. None of the dimensions of the retina VOIs were much smaller than 2 times the full width at half-maximum (2 × 4.36 mm) of the employed PET scanner, meaning that partial volume effects causing an underestimation of the true radiotracer concentration in the VOI were negligible. […] Time-activity curves (TACs) were extracted from the coregistered dynamic PET images and normalized to injected radioactivity amount per body weight and expressed in units of standardized uptake value (SUV). The area under the TACs in plasma (AUCplasma), the retina (AUCretina) and the brain (AUCbrain), from 0 to 60 min after radiotracer injection, was determined with Prism 9.5.0 software (GraphPad Software, La Jolla, CA, USA).

healthy volunteers = test system: healthy volunteers; set-up: method as in PMID 30237210; conditions: oral 1000 mg dose group; precluded inclusion of additional subjects; cited from earlier work
[7] = set-up: method as in PMID 26940368, PMID 30237210; conditions: under the PET inhibition protocols; cited from earlier work
[8] = test system: P-gp and BCRP at the human blood–retina barrier (BRB); experiment: [^11C]erlotinib PET, distribution to the human retina, baseline vs P-gp and/or BCRP inhibition; type: in vivo
Description: as §4, §5, §6, §7

[9] = set-up: method as in PMID 25165131; conditions: cited from earlier work
P-gp at the BBB = test system: P-gp at the BBB; set-up: method as in PMID 25669913; conditions: human; i.v. tariquidar co-infusion protocol; cited from earlier work
P-gp at the human BRB = test system: P-gp at the human BRB; set-up: method as in PMID 27738009; conditions: i.v. tariquidar co-infusion; cited from earlier work
[10] = co-perfusion with 10 μM inhibitor
[11] = all combined oral erlotinib doses, p ≤ 0.001
[12] = all combined oral erlotinib dose groups, p ≤ 0.001
[13] = oral erlotinib 300 mg, p ≤ 0.05
[14] = oral erlotinib 650 mg, p ≤ 0.05
[15] = co-perfusion with 20 μM inhibitor
[16] = i.v. tariquidar infusion, p ≤ 0.05

Compound: C[N+](C)(C)C[C@H](O)CC(=O)[O-] [L-carnitine]
significant changes in brain [^3H]erlotinib transport on co-perfusion [1]: None
significant changes in retina [^3H]erlotinib transport on co-perfusion [2]: None

Compound: CC[N+](CC)(CC)CC [TEA, tetraethylammonium]
significant changes in brain [^3H]erlotinib transport on co-perfusion [1]: None
significant changes in retina [^3H]erlotinib transport on co-perfusion [2]: None

Compound: COc1cc2c(cc1OC)CN(CCc1ccc(NC(=O)c3cc(OC)c(OC)cc3NC(=O)c3cnc4ccccc4c3)cc1)CC2 [[^11C]tariquidar]
baseline distribution (VT) in the human retina relative to the human brain [3]: 4–5 times

Compound: COc1cc2c(cc1OC)CN(CCc1ccc(NC(=O)c3cccc4c(=O)c5cccc(OC)c5[nH]c34)cc1)CC2 [elacridar]
change in Kin of [^3H]erlotinib vs baseline [4, 10]: +277%
increase in [^3H]erlotinib distribution to the retina (Kin) vs baseline ([5]; mouse BRB, co-perfusion with 10 μM inhibitor): +114%

Compound: C[N+](C)(C)[C@@H](Cc1c[nH]c(=S)[nH]1)C(=O)[O-] [ergothioneine]
significant changes in brain [^3H]erlotinib transport on co-perfusion [1]: None
significant changes in retina [^3H]erlotinib transport on co-perfusion [2]: None

Compound: C#Cc1cccc(Nc2ncnc3cc(OCCOC)c(OCCOC)cc23)c1 [erlotinib]
change in AUCR of [^11C]erlotinib vs baseline scan [6, 11]: +15 ± 14%
change in VT of [^11C]erlotinib vs baseline scan [6, 11]: +20 ± 16%
change in AUCR of [^11C]erlotinib vs baseline scan ([6]; oral erlotinib 300 mg): no statistically significant changes
change in VT of [^11C]erlotinib vs baseline scan ([6]; oral erlotinib 300 mg): no statistically significant changes
change in AUCR of [^11C]erlotinib vs baseline scan ([6]; oral erlotinib 650 mg): statistically significant increase
change in VT of [^11C]erlotinib vs baseline scan ([6]; oral erlotinib 650 mg): statistically significant increase
adverse events (healthy volunteers): skin rash
unbound plasma concentration in humans [7]: approximately 0.4 μM
change in AUCR of [^11C]erlotinib vs baseline scan [8, 12]: −31 ± 15%
change in VT of [^11C]erlotinib vs baseline scan [8, 12]: −41 ± 16%
change in AUCR of [^11C]erlotinib vs baseline scan [8, 13]: −34 ± 9%
change in VT of [^11C]erlotinib vs baseline scan [8, 13]: −44 ± 12%
change in AUCR of [^11C]erlotinib vs baseline scan [8, 14]: −31 ± 21%
change in VT of [^11C]erlotinib vs baseline scan [8, 14]: −42 ± 19%
change in Kin of [^3H]erlotinib vs baseline [4, 10]: +215%
change in Kin of [^3H]erlotinib vs baseline [4, 15]: +340%
effect of co-infusion of unlabeled erlotinib on Kin of [^3H]erlotinib in the retina ([5]; mouse, two different doses (10 or 20 μM)): did not decrease

Compound: C[C@]12CC[C@@H]3c4ccc(OS(=O)(=O)O)cc4CC[C@H]3[C@@H]1CCC2=O [estrone-3-sulfate]
significant changes in brain [^3H]erlotinib transport on co-perfusion [1]: None
significant changes in retina [^3H]erlotinib transport on co-perfusion [2]: None

Compound: COc1cc2ncnc(Nc3ccc(F)c(Cl)c3)c2cc1OCCCN1CCOCC1 [gefitinib]
pKa [9]: 5.4

Compound: COc1cc2c(cc1OC)CN(CCc1ccc(NC(=O)c3cc(OC)c(OC)cc3NC(=O)c3cnc4ccccc4c3)cc1)CC2 [tariquidar]
change in AUCR of [^11C]erlotinib vs baseline scan ([6]; i.v. tariquidar infusion): no significant changes
change in VT of [^11C]erlotinib vs baseline scan ([6]; i.v. tariquidar infusion): did not result in any significant changes; also recorded: no significant changes
unbound plasma concentration in humans [7]: ~0.03 µM
change in AUCR of [^11C]erlotinib vs baseline scan [8, 16]: −18 ± 8%
change in VT of [^11C]erlotinib vs baseline scan [8, 16]: −25 ± 8%
increase in brain distribution of (R)-[^11C]verapamil (P-gp at the BBB): approximately 4 fold
change in Kin of [^3H]erlotinib vs baseline [4, 10]: +270%
change in Kin of [^3H]erlotinib vs baseline [4, 15]: +280%
increase in retinal VT of (R)-[^11C]verapamil (P-gp at the human BRB): 1.4 fold

Compound: C/C=C/C[C@@H](C)C(=O)[C@H]1C(=O)N[C@@H](C(C)C)C(=O)N(C)CC(=O)N(C)[C@@H](CC(C)C)C(=O)N[C@@H](C(C)C)C(=O)N(C)[C@@H](CC(C)C)C(=O)N[C@@H](C)C(=O)N[C@H](C)C(=O)N(C)[C@@H](CC(C)C)C(=O)N(C)[C@@H](CC(C)C)C(=O)N(C)[C@@H](C(C)C)C(=O)N1C [valspodar]
change in Kin of [^3H]erlotinib vs baseline [4, 10]: +120%

Kin at the mouse BRB relative to the BBB ([5]; mouse, in vivo): approximately 2 times
Compound: [^3H]erlotinib
